What all share (assay type): binding
Holding throughout (settings): Compound Concentration 10 µM

For assay [1], the target named is T1, panel of 442 kinases (Homo sapiens, UniProt Q16566).
T1 construct: purchased KINOMEscan
T1 sequence (Q16566 1-473): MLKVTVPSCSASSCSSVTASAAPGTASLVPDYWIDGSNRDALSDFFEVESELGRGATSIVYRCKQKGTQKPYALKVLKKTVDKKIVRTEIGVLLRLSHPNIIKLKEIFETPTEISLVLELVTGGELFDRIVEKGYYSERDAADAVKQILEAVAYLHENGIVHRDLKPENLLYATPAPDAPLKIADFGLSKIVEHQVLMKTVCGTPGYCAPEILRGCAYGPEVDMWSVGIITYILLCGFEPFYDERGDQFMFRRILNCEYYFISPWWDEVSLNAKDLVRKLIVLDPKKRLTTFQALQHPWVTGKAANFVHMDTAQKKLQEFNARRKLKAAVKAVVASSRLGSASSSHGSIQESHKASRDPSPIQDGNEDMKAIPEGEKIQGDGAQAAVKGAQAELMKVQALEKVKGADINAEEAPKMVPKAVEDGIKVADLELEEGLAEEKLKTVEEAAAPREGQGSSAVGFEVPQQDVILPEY
The source says:
(§1) We assessed the selectivity of members of this scaffold using the KINOMEscan methodology across a near comprehensive panel of 442 kinases [[18,27]].

Assay [2] addresses T2, panel of 442 kinases (Homo sapiens, UniProt Q16539).
T2 construct: purchased KINOMEscan
Excerpt: as §1

In assay [3] the target is T3, panel of 442 kinases (Homo sapiens, UniProt Q9H4B4).
T3 construct: purchased KINOMEscan
Excerpt: as §1

T3 sequence (Q9H4B4 whole entry): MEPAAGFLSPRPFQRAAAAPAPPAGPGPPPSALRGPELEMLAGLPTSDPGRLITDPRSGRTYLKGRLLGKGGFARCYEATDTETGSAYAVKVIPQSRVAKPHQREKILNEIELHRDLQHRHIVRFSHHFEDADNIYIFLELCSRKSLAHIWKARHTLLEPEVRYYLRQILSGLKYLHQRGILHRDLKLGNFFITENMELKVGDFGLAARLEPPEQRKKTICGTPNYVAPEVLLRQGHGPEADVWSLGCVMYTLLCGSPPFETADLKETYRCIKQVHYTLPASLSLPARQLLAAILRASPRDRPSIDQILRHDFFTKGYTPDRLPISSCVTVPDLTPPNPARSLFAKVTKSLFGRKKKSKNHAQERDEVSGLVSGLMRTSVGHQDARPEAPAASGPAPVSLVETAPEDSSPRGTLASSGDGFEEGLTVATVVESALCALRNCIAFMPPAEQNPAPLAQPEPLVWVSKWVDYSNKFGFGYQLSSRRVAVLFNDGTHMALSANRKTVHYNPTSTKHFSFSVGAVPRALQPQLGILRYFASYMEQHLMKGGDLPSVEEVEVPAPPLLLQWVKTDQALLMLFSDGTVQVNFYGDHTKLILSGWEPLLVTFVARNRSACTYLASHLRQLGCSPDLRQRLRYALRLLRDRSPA
T2 sequence (Q16539 whole entry): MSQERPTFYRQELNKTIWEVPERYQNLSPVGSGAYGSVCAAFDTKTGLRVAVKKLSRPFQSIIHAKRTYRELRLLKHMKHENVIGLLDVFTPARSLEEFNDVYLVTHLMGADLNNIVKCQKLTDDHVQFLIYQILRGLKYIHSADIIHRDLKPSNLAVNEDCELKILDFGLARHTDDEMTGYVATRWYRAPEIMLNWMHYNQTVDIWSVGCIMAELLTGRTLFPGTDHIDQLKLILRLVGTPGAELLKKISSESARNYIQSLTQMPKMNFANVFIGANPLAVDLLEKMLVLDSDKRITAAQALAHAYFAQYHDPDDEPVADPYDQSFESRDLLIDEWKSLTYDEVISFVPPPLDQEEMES

Regarding `CCOc1cc(C(=O)N2CCC(N3CCN(C)CC3)CC2)ccc1Nc1ncc2c(n1)N(C1CCCC1)c1ccccc1C(=O)N2C` [Compound 26], on panel of 442 kinases [1], the “KINOMEscan: CAMK4” value amounted to 100. Further, the “KINOMEscan: p38-alpha” value at panel of 442 kinases [2] is listed as 94. The “KINOMEscan: PLK3” value on panel of 442 kinases [3] worked out at 84.

As to `COc1cc(C(=O)N2CCC(N3CCN(C)CC3)CC2)ccc1Nc1ncc2c(n1)N1CCc3cccc(c31)C(=O)N2C` [Compound 24], the “KINOMEscan: PLK3” value on panel of 442 kinases [3] is on record as 3.8.

Regarding `COc1cc(C(=O)N2CCC(N3CCN(C)CC3)CC2)ccc1Nc1ncc2c(n1)N(C)c1ccccc1C(=O)N2C` [15 (LRRK2-IN-1)], the “KINOMEscan: CAMK4” value at panel of 442 kinases [1] came out at 79. Further, the “KINOMEscan: p38-alpha” value at panel of 442 kinases [2] worked out at 87. In addition, the “KINOMEscan: PLK3” value at panel of 442 kinases [3] was 51.

Turning to `COc1cc(C(=O)N2CCC(N3CCN(C)CC3)CC2)ccc1Nc1ncc2c(n1)N(C1CCCC1)c1ccccc1C(=O)N2C` [Compound 25, 11-cyclopentyl-2-((2-methoxy-4-(4-(4-methylpiperazin-1-yl)piperidine-1-carbonyl)phenyl)amino)-5-methyl-5H-benzo[e]pyrimido[5,4-b][1,4]diazepin-6(11H)-one], at panel of 442 kinases [1], the “KINOMEscan: CAMK4” value amounted to 82. Besides, the “KINOMEscan: p38-alpha” value at panel of 442 kinases [2] worked out at 99. In addition, the “KINOMEscan: PLK3” value at panel of 442 kinases [3] was found to be 73.

For the origin of these results see paper PMC3914206.
